Assay results published in ChEMBL document CHEMBL1201862, “PubChem BioAssay data set” (2004).
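Briefly, cells in 96-well plates were exposed to five compound concentrations for 48 h, and endpoints were estimated by linear interpolation. GI50 = concentration required for 50% inhibition of growth.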 Activity calls are given as the source filed them. No stated cut-off is given here; in the data, active = GI50 up to about 1.1 µM and inactive = higher.

Columns and labels:
Assay in all cases: NCI tumour cell line growth inhibition, 48 h
786-0 = tested on: 786-0
BT-549 = tested on: BT-549
CCRF-CEM = tested on: CCRF-CEM
COLO 205 = tested on: COLO 205
DU-145 = tested on: DU-145
HCT-15 = tested on: HCT-15
HOP-62 = tested on: HOP-62
K562 = tested on: K562
MCF7 = tested on: MCF7
MDA-MB-231 = tested on: MDA-MB-231
Malme-3M = tested on: Malme-3M
NCI-H23 = tested on: NCI-H23
PC-3 = tested on: PC-3
SF-539 = tested on: SF-539
SK-MEL-5 = tested on: SK-MEL-5
SW-620 = tested on: SW-620
UACC-257 = tested on: UACC-257
HOP-92 = tested on: HOP-92
OVCAR-4 = tested on: OVCAR-4
SNB-75 = tested on: SNB-75

Row | Structure (SMILES) | GI50 (786-0) | GI50 (BT-549) | GI50 (CCRF-CEM) | GI50 (COLO 205) | GI50 (DU-145) | GI50 (HCT-15) [µM] | GI50 (HOP-62) | GI50 (K562) | GI50 (MCF7) | GI50 (MDA-MB-231) | GI50 (Malme-3M) | GI50 (NCI-H23) | GI50 (PC-3) | GI50 (SF-539) | GI50 (SK-MEL-5) | GI50 (SW-620) | GI50 (UACC-257) | GI50 (HOP-92) | GI50 (OVCAR-4) | GI50 (SNB-75)
1 | O=C1CC2(CCNCC2)C(=O)N1N1CCCC1 | > 100 µM (inactive) | > 100 µM (inactive) | > 100 µM (inactive) | > 100 µM (inactive) | > 100 µM (inactive) | > 100 | > 100 µM (inactive) | > 100 µM (inactive) | > 100 µM (inactive) | > 100 µM (inactive) | > 100 µM (inactive) | > 100 µM (inactive) | > 100 µM (inactive) | > 100 µM (inactive) | > 100 µM (inactive) | > 100 µM (inactive) | > 100 µM (inactive) |  |  | 
2 | CN1C(Cl)=NS(=O)(=O)c2ccccc21 | > 100 µM (inactive) | > 100 µM (inactive) | 34 µM (inactive) | 43 µM (inactive) | > 100 µM (inactive) | > 100 | > 100 µM (inactive) | > 100 µM (inactive) | > 100 µM (inactive) | > 100 µM (inactive) |  | > 100 µM (inactive) | > 100 µM (inactive) | > 100 µM (inactive) | > 100 µM (inactive) | > 100 µM (inactive) | > 100 µM (inactive) | > 100 µM (inactive) | > 100 µM (inactive) | 
3 | Cc1ccc(/C=C2\CN(C)CC3C(c4ccc(C)cc4)=C(C#N)C(=O)NC23)cc1 (stereo not given) | > 50 µM (inactive) | > 50 µM (inactive) | > 50 µM (inactive) | > 50 µM (inactive) | > 50 µM (inactive) | > 50 | > 50 µM (inactive) | > 50 µM (inactive) | > 50 µM (inactive) | 48.2 µM (inactive) | > 50 µM (inactive) | > 50 µM (inactive) | > 50 µM (inactive) |  | > 50 µM (inactive) | > 50 µM (inactive) | > 50 µM (inactive) | 29.3 µM (inactive) | > 50 µM (inactive) | 
4 | CCCCCCCC/C=C/CCCCCCCC1CC(O)C(=O)O1 (stereo not given) | 42.4 µM (inactive) | 28.9 µM (inactive) | 39.9 µM (inactive) | 30.1 µM (inactive) | 36.7 µM (inactive) | 43.1 | 41.4 µM (inactive) | 42 µM (inactive) | 32.4 µM (inactive) | > 100 µM (inactive) | 54.1 µM (inactive) | 44.8 µM (inactive) | 46.3 µM (inactive) |  | 46.1 µM (inactive) | 55.5 µM (inactive) | 46.7 µM (inactive) | 26.7 µM (inactive) | 43.2 µM (inactive) | 35.7 µM (inactive)
5 | Oc1nc2cc3nc(O)c(O)nc3cc2nc1O | > 100 µM (inactive) | > 100 µM (inactive) | > 100 µM (inactive) | > 100 µM (inactive) | > 100 µM (inactive) | > 100 |  | > 100 µM (inactive) | > 100 µM (inactive) | > 100 µM (inactive) | > 100 µM (inactive) | > 100 µM (inactive) | > 100 µM (inactive) | > 100 µM (inactive) | > 100 µM (inactive) | > 100 µM (inactive) | > 100 µM (inactive) |  |  | > 100 µM (inactive)
6 | FC1(F)ON2CCc3ccccc3C2[C@H]1c1ccccc1 (stereo not given in full) | 26.4 µM (inactive) | > 10 µM (inactive) | > 100 µM (inactive) | > 10 µM (inactive) | > 10 µM (inactive) | > 10 | 90.4 µM (inactive) | > 10 µM (inactive) | > 10 µM (inactive) | 48.9 µM (inactive) | 2.22 µM (inactive) | > 10 µM (inactive) | > 10 µM (inactive) | 91.8 µM (inactive) | > 10 µM (inactive) | > 10 µM (inactive) | > 10 µM (inactive) |  | > 10 µM (inactive) | 16.7 µM (inactive)
7 | CN(C)CCCNc1ccc2nnn3c4ccc(OC(=O)c5ccccc5)cc4c(=O)c1c23 | 3.08 µM (inactive) | 16.8 µM (inactive) | 1.08 µM (active) | 14 µM (inactive) | 8.26 µM (inactive) | 5.36 | 5.92 µM (inactive) | 1.81 µM (inactive) | 6.07 µM (inactive) | 10.4 µM (inactive) | 11.5 µM (inactive) | 13.4 µM (inactive) | 8.34 µM (inactive) | 6.76 µM (inactive) |  | 4.53 µM (inactive) | 16 µM (inactive) | 12.6 µM (inactive) | 1.66 µM (inactive) | 
8 | COP(=O)(OC)C(C)(C)NC(=O)NC(F)(F)F | > 100 µM (inactive) | > 100 µM (inactive) | > 100 µM (inactive) | > 100 µM (inactive) | > 100 µM (inactive) | > 100 | > 100 µM (inactive) | > 100 µM (inactive) | > 100 µM (inactive) | > 100 µM (inactive) | > 100 µM (inactive) | > 100 µM (inactive) | > 100 µM (inactive) | > 100 µM (inactive) | > 100 µM (inactive) | > 100 µM (inactive) | > 100 µM (inactive) |  | > 100 µM (inactive) | > 100 µM (inactive)
